Patent US8592421B2, “Cyclic bioisosters of purine system derivatives and a pharmaceutical composition based thereon” (priority 2003, dated 2013)

Key:
[1] = test system: adenosine-sensitive receptors of erythrocytes; test: Interaction with adenosine-sensitive receptors of erythrocytes (chemiluminescence of bound compound, adenosine competition); type: binding, mice of line BALB/c; settings: incubation at 37° C. vs 4° C., 10^−7 to 10^−5 M
Experimental: The interaction of compounds 2, 15, 21, 37 according to the invention with adenosine-sensitive receptors of erythrocytes of female mice of line BALB/c of an age of 8-12 months was investigated.
The dependence of the chemiluminescence intensity of the compounds according to the invention in an alkaline solution of 0.1N NaOH was determined in the presence of hydrogen peroxide being an initiator of chemiluminescence. The chemiluminescence was studied using the <<LKB>> chemiluminometer.
The erythrocytes of peripheral blood of the mice at first were washed three times by a normal physiological solution with centrifuging and then diluted in the Henks solution without glucose by 10 volumes of distilled water immediately used in the experiment.
At the first stage of the experiments the washed erythrocytes were incubated at a temperature of 37° C. or at 4° C. with solutions of the compounds according to the invention at a concentration of 10^−7 to 10^−5 M for 5-30 minutes, then washed by a normal physiological solution with repeated centrifuging in the cold. The obtained suspension of erythrocytes with the bound compounds according to the invention was placed in 0.1N solution of NaOH with addition of hydrogen peroxide at a final concentration of 10^−7 M. The chemiluminescence intensity was measured. A suspension of erythrocytes without compounds according to the invention was used as a control medium.
At the second stage of the experiments the washed erythrocytes were incubated at a temperature of 37° C. with solutions of the compounds according to the invention at a concentration of 10^−11 to 10^−8 M during 5-30 minutes, then washed twice with a normal physiological solution by centrifuging in the cold, the obtained suspension was mixed with an adenosine solution at a concentration of 10^−6 to 10^−4 and incubated for 15 minutes, then washed twice with a normal physiological solution with centrifuging in the cold. The obtained suspension of erythrocytes with the compounds according to the invention was placed in 0.1N solution of NaOH with addition of hydrogen peroxide in the final concentration of 10^−7 M. The chemiluminescence intensity was measured.

plasma hemostasis = test: Autocoagulation test (coagulating activity A) after intravenous administration; type: in vivo, rabbit; settings: for effect on the coagulation activity according to the autocoagulation test: doses 15.0, 30.0, 60.0 mg/kg
Experimental: The investigations were performed on 72 rabbits of the “Chinchilla” breed with a mass of 2.5±0.3 kg, who were administered which solutions of compounds 2, 15, 21, 37 in doses of 15, 30 and 60 mg/kg intravenously. The experiments included the thrombin-test (series No. 7300) and the coagulability-test (series No. 5000) purchased from the scientific-and-production association (SPA) “Renam”, thromboplastin (series No. 240600) and calcium chloride purchased from the SPA “MedioLab”
The static parameters of the blood and plasma coagulation (partial activated thromboplastin time, thrombin time, maximum coagulation activity (test for auto coagulation) were determined using the Behnk Electronic coagulometer (Germany). The operating principle of this instrument is based on the fact that the formed blood clot breaks the contacts of the pulse counter in the flask-pin circuit, said pin permanently oscillating in a vertical plane. The moment of formation of the clot is registered by stopping the stop watch hand.
The measurements were effected at a constant temperature of 37° C. maintained by a temperature control unit.
Compounds 2, 15, 21, 37 according to the invention at a concentration of 15, 30 and 60 mg/kg were intravenously administered to the above experimental animals and their blood samples were taken off 15, 30, 60 and 120 minutes after the administration.
Added to 0.2 ml of plasma obtained by centrifuging citrate blood at 1500 rev/min within 10 minutes was a glycosylate-calcium mixture (2.0 ml 0.222% CaCl2+0.1 ml of investigated citrate blood) 4, 6, 8, 10 minutes after the preparation of this mixture and the time of coagulation in the sample was determined.
The obtained results in seconds were translated in factors of coagulating activity A in percent, which specify the state of both the coagulating and anticoagulating parts of the blood coagulating system. The results of the experiments are given in Table 7. • The effect of the compounds according to the invention on the values of coagulating activity A by the data of autocoagulation test with intravenous administration of the compounds to the rabbits

[2] = 15.0 mg/kg intravenously, after 15 minutes, control 85.6
[3] = 15.0 mg/kg intravenously, after 30 minutes, control 85.6
[4] = 15.0 mg/kg intravenously, after 60 minutes, control 85.6
[5] = 15.0 mg/kg intravenously, after 120 minutes, control 85.6
[6] = 30.0 mg/kg intravenously, after 15 minutes, control 70.0
[7] = 30.0 mg/kg intravenously, after 30 minutes, control 70.0
[8] = 30.0 mg/kg intravenously, after 60 minutes, control 70.0
[9] = 30.0 mg/kg intravenously, after 120 minutes, control 70.0
[10] = 60.0 mg/kg intravenously, after 15 minutes, control 65.9
[11] = 60.0 mg/kg intravenously, after 30 minutes, control 65.9
[12] = 60.0 mg/kg intravenously, after 60 minutes, control 65.9
[13] = 60.0 mg/kg intravenously, after 120 minutes, control 65.9

| SMILES | dependence of the bond with erythrocytes on temperature [1] | coagulating activity A (autocoagulation test) (plasma hemostasis; [2]) [%] | coagulating activity A (autocoagulation test) (plasma hemostasis; [3]) [%] | coagulating activity A (autocoagulation test) (plasma hemostasis; [4]) [%] | coagulating activity A (autocoagulation test) (plasma hemostasis; [5]) [%] | coagulating activity A (autocoagulation test) (plasma hemostasis; [6]) [%] | coagulating activity A (autocoagulation test) (plasma hemostasis; [7]) [%] | coagulating activity A (autocoagulation test) (plasma hemostasis; [8]) [%] | coagulating activity A (autocoagulation test) (plasma hemostasis; [9]) [%] | coagulating activity A (autocoagulation test) (plasma hemostasis; [10]) [%] | coagulating activity A (autocoagulation test) (plasma hemostasis; [11]) [%] | coagulating activity A (autocoagulation test) (plasma hemostasis; [12]) [%] | coagulating activity A (autocoagulation test) (plasma hemostasis; [13]) [%] | effect on the coagulation activity according to the autocoagulation test (plasma hemostasis) |
| --- | --- | --- | --- | --- | --- | --- | --- | --- | --- | --- | --- | --- | --- | --- |
| Nc1ccnc2c(=O)n([C@@H]3O[C@H](CO)[C@@H](O)[C@H]3O)[nH]c(=O)c12 [Compound 2, 4-amino-7-(β-D-ribofuranosile)pyrido[2,3-d]-6H-pyridazine-5,8-dione] | does not depend on the temperature | 80.2 | 100.0 | 87.4 | 98.0 | 98.4 | 71.2 | 104.2 | 70.9 | 72.3 | 60.8 | 62.5 | 65.7 | have no effect on the coagulation activity |
| Nc1cccc2c(=O)[nH][nH]c(=O)c12.[Na] [Compound 15, sodium salt of 5-amino-benzo[d]-3H-pyridazine-1,4-dione] | does not depend on the temperature | 82.3 | 103.0 | 89.0 | 101.2 | 100.3 | 68.4 | 106.6 | 70.6 | 74.4 | 63.2 | 64.4 | 66.5 | have no effect on the coagulation activity |
| Nc1cnc2c(=O)n([C@@H]3O[C@H](CO)[C@@H](O)[C@H]3O)[nH]c(=O)c2n1.[Na] [Compound 21, sodium salt of 3-amino-7-(β-D-ribofuranosile)pyrazine[2,3-d]-6H-pyridazine-5,8-dione] | does not depend on the temperature | 81.4 | 101.3 | 86.5 | 97.4 | 97.2 | 69.1 | 103.7 | 71.0 | 71.9 | 62.1 | 63.7 | 66.2 | have no effect on the coagulation activity |
| O=c1[nH][nH]c(=O)c2c(Br)ncnc12.[K] [Compound 37, potassium salt of 4-bromine-pyrimido[4,5-D]-6H-pyridazine-5,8-dione] | does not depend on the temperature | 82.1 | 102.8 | 88.7 | 100.6 | 99.8 | 68.3 | 105.8 | 70.4 | 74.3 | 63.0 | 64.2 | 66.3 | have no effect on the coagulation activity |
